# Several values for one entry are separate records, joined by “and”; a condition that tells them apart may be missing. Equal values may be shown once. Entries after “also recorded” stand apart in the source; their conditions may differ. Read-outs that look alike come from different tables or passages of the source. Marks after values point to notes of the source that are not given here.
# Experiments:
# [1] = molecular target: T1, folate receptors (FRs) (Homo sapiens, UniProt P15328); test: Relative Affinity Assay (displacement of 3H-folic acid on FR-positive KB cells); format: binding; settings: for relative binding affinity versus folic acid at folic acid receptors: figure legends, folic acid = 1.0, 1 hour at 37° C; for Relative Folate Receptor Affinity: summary table
# T1 construct: FR-positive KB cells were heavily seeded into 24-well cell culture plates; endogenous in cells; host or cells: KB cells
# T1 sequence (P15328 25-234): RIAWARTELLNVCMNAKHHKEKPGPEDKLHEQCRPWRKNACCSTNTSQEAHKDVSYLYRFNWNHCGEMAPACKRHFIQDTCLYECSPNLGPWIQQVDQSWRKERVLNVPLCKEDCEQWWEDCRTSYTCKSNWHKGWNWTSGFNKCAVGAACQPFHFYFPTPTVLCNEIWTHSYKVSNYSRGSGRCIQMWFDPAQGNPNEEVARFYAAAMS
# Description: Relative Affinity Assay. The affinity of the compounds described herein for folate receptors (FRs) relative to folate was determined according to a previously described method (Westerhof, G. R., J. H. Schornagel, et al. (1995) Mol. Pharm. 48: 459-471) with slight modification. Briefly, FR-positive KB cells were heavily seeded into 24-well cell culture plates and allowed to adhere to the plastic for 18 h. Spent incubation media was replaced in designated wells with folate-free RPMI (FFRPMI) supplemented with 100 nM ^3H-folic acid in the absence and presence of increasing concentrations of test article or folic acid. Cells were incubated for 60 min at 37° C. and then rinsed 3 times with PBS, pH 7.4, followed by the addition of 500 μL of 1% SDS in PBS, pH 7.4. Cell lysates were then collected and added to individual vials containing 5 mL of scintillation cocktail, and then counted for radioactivity. Negative control tubes contained only the ^3H-folic acid in FFRPMI (no competitor). Positive control tubes contained a final concentration of 1 mM folic acid, and CPMs measured in these samples (representing non-specific binding of label) were subtracted from all samples.
# [2] = tested on: folate receptor-positive KB cells; format: cell-based, human; settings: for competition by excess folic acid of effect on 3H-thymidine incorporation: with versus without at least 100-fold excess of folic acid
# Description: Inhibition of Cellular DNA Synthesis. The compounds described herein were evaluated using an in vitro cytotoxicity assay that predicts the ability of the drug to inhibit the growth of folate receptor-positive KB cells. The compounds were comprised of folate linked to a respective chemotherapeutic drug, as prepared according to the protocols described herein. The KB cells were exposed for predetermined periods of time at 37° C. to the indicated concentrations of folate-drug conjugate in the absence or presence of at least a 100-fold excess of folic acid. The cells were then rinsed with fresh culture medium and incubated in fresh culture medium for 72 hours at 37° C. Cell viability was assessed using a ^3H-thymidine incorporation assay.
# [3] = Animal Weight Determination; settings: for weight of Balb/c mice: 3 μmol/kg TIW for 3 weeks (FIG. 25B); for Weight Loss: nu/nu mice with KB tumors
# Description: Animal Weight Determination. The percentage weight change of the mice was determined in mice (5 mice/group) on the indicated days post-tumor inoculation (PTI) as shown in the graph for the samples described in the related tumor volume assay.
# [4] = tested on: KB tumors; format: in vivo, nu/nu mice; settings: for % T/C / LCK (log of cell kill): animals not showing complete response
# Description: Inhibition of Tumor Growth in Mice. The anti-tumor activity of the compounds described herein, when administered intravenously (i.v.) to tumor-bearing animals, was evaluated in nu/nu mice bearing subcutaneous KB tumors. Approximately 8 to 11 days post tumor inoculation in the subcutis of the right axilla with 1×10^6 KB cells (tumor volume range at t0=between 60 and 80 mm^3), mice (5/group) were injected i.v. three times a week (TIW), for a defined length of time (e.g., 2-3 weeks) with (a) a defined dose level on a per kilogram body weight basis of a drug delivery conjugate described herein, or (b) an equivalent dose volume of PBS (control). Tumor growth was measured using calipers at 2-day or 3-day intervals in each treatment group. Tumor volumes were calculated using the equation V=a×b^2/2, where “a” is the length of the tumor and “b” is the width expressed in millimeters.
# [5] = KB cells, without excess folic acid, read-out: IC50, 3H-thymidine incorporation in KB cells
smiles,measurement,setting,value
CC[C@]1(O)C[C@H]2CN(CCc3c([nH]c4ccccc34)[C@@](C(=O)OC)(c3cc4c(cc3OC)N(C)[C@H]3[C@@](O)(C(=O)NNC(=O)OCCSSC[C@H](NC(=O)CC[C@H](NC(=O)c5ccc(NCc6cnc7nc(N)[nH]c(=O)c7n6)cc5)C(=O)O)C(=O)O)[C@H](O)[C@]5(CC)C=CCN6CC[C@]43[C@@H]65)C2)C1 [Example 18],relative binding affinity versus folic acid at folic acid receptors,[1],0.13
same,Relative Folate Receptor Affinity,[1],0.13
same,Folate Receptor Competition,[2]; summary table,Yes
same,competition by excess folic acid of effect on 3H-thymidine incorporation,[2],folate competes
CC[C@]1(O)C[C@H]2CN(CCc3c([nH]c4ccccc34)[C@@](C(=O)OC)(c3cc4c(cc3OC)N(C)[C@H]3[C@@](O)(C(=O)NCCOC(=O)OCCSSC[C@H](NC(=O)[C@H](CC(=O)O)NC(=O)[C@H](CCCNC(=N)N)NC(=O)[C@H](CC(=O)O)NC(=O)CC[C@H](NC(=O)c5ccc(NCc6cnc7nc(N)[nH]c(=O)c7n6)cc5)C(=O)O)C(=O)O)[C@H](O)[C@]5(CC)C=CCN6CC[C@]43[C@@H]65)C2)C1 [Example 22],relative binding affinity versus folic acid at folic acid receptors,[1],0.26
same,weight of Balb/c mice,[3],little effect on the weight of the mice; also recorded: absence of an effect
CC[C@]1(O)C[C@H]2CN(CCc3c([nH]c4ccccc34)[C@@](C(=O)OC)(c3cc4c(cc3OC)N(C)[C@H]3[C@@](O)(C(=O)NNC(=O)OCCSSC[C@H](NC(=O)c5ccc(NCc6cnc7nc(N)[nH]c(=O)c7n6)cc5)C(=O)O)[C@H](O)[C@]5(CC)C=CCN6CC[C@]43[C@@H]65)C2)C1 [Example 19],relative binding affinity versus folic acid at folic acid receptors,[1],0.046
same,Relative Folate Receptor Affinity,[1],0.05
same,Folate Receptor Competition,[2]; summary table,Yes
same,competition by excess folic acid of effect on 3H-thymidine incorporation,[2],folate competes
CC[C@]1(O)C[C@H]2CN(CCc3c([nH]c4ccccc34)[C@@](C(=O)OC)(c3cc4c(cc3OC)N(C)[C@H]3[C@@](O)(C(=O)NNC(=O)OCCSSC[C@H](NC(=O)[C@H](CC(=O)O)NC(=O)[C@H](CC(=O)O)NC(=O)[C@H](CCCNC(=N)N)NC(=O)[C@H](CC(=O)O)NC(=O)[C@H](CCC(=O)O)NC(=O)c5ccc(NCc6cnc7nc(N)[nH]c(=O)c7n6)cc5)C(=O)O)[C@H](O)[C@]5(CC)C=CCN6CC[C@]43[C@@H]65)C2)C1 [Example 11],weight of nu/nu mice,[3]; 2 μmol/kg TIW for 3 weeks (FIG. 26B),little effect on the weight of the mice; also recorded: absence of an effect
Nc1nc2ncc(CNc3ccc(C(=O)N[C@H](CCC(=O)NC[C@H](N)C(=O)N[C@@H](CC(=O)O)C(=O)N[C@@H](CS)C(=O)O)C(=O)O)cc3)nc2c(=O)[nH]1 [EC20],competition with Example 7 at folate receptors,[4]; 40 μmol/kg EC20 (rhenium complex) with 2 μmol/kg Example 7,acts as a competitor of Example 7 at folate receptors
"Nc1nc2ncc(CNc3ccc(C(=O)N[C@@H](CCC(=O)O)C(=O)O)cc3)nc2c(=O)[nH]1 [folic acid, reference compound]",relative binding affinity versus folic acid at folic acid receptors,[1],1.0
CC[C@]1(O)C[C@H]2CN(CCc3c([nH]c4ccccc34)[C@@](C(=O)OC)(c3cc4c(cc3OC)N(C)[C@H]3[C@@](O)(C(=O)NNC(=O)OCCSSC[C@H](NC(=O)[C@H](CC(=O)O)NC(=O)[C@H](CC(=O)O)NC(=O)[C@H](CCCNC(=N)N)NC(=O)[C@H](CC(=O)O)NC(=O)CC[C@H](NC(=O)c5ccc(NCc6cnc7nc(N)[nH]c(=O)c7n6)cc5)C(=O)O)C(=O)O)[C@H](O)[C@]5(CC)C=CCN6CC[C@]43[C@@H]65)C2)C1 [Example 7],Relative Folate Receptor Affinity,[1],0.17
same,IC50,[2]; [5],9 nM and ~16 nM
same,IC50,"[2]; summary table, read-out: IC50 KB Cells",< 100 nM
CC[C@]1(O)C[C@H]2CN(CCc3c([nH]c4ccccc34)[C@@](C(=O)OC)(c3cc4c(cc3OC)N(C)[C@H]3[C@@](O)(C(=O)NNC(=O)OCCSSC[C@H](NC(=O)[C@H](CN)NC(=O)[C@H](CC(=O)O)NC(=O)[C@H](CC(=O)O)NC(=O)[C@H](CC(=O)O)NC(=O)CC[C@H](NC(=O)c5ccc(NCc6cnc7nc(N)[nH]c(=O)c7n6)cc5)C(=O)O)C(=O)O)[C@H](O)[C@]5(CC)C=CCN6CC[C@]43[C@@H]65)C2)C1 [Example 10],relative binding affinity versus folic acid at folic acid receptors,[1],0.24
same,IC50,[2]; [5],58 nM and ~58 nM
same,competition by excess folic acid of effect on 3H-thymidine incorporation,[2],folate competes
CC[C@]1(O)C[C@H]2CN(CCc3c([nH]c4ccccc34)[C@@](C(=O)OC)(c3cc4c(cc3OC)N(C)[C@H]3[C@@](O)(C(=O)NNC(=O)OCCSSC[C@H](NC(=O)[C@H](CC(=O)O)NC(=O)[C@H](CC(=O)O)NC(=O)[C@H](CC(=O)O)NC(=O)[C@H](CC(=O)O)NC(=O)CC[C@H](NC(=O)c5ccc(NCc6cnc7nc(N)[nH]c(=O)c7n6)cc5)C(=O)O)C(=O)O)[C@H](O)[C@]5(CC)C=CCN6CC[C@]43[C@@H]65)C2)C1 [Example 21],relative binding affinity versus folic acid at folic acid receptors,[1],0.16
same,weight of Balb/c mice,[3],little effect on the weight of the mice; also recorded: absence of an effect
"CC[C@]1(O)C[C@@H]2CN(CCc3c([nH]c4ccccc34)[C@@](C(=O)OC)(c3cc4c(cc3OC)N(C)[C@H]3[C@@](O)(C(=O)NN)[C@H](O)[C@]5(CC)C=CCN6CC[C@]43[C@@H]65)C2)C1 [DAVLBH, desacetylvinblastine hydrazide]",CR (animals of 5 showing a complete response),[4]; 0.5 μmol/kg TIW 2 wk,0/5
same,% T/C,[4]; 0.5 μmol/kg TIW 2 wk,146%
same,LCK (log of cell kill),[4]; 0.5 μmol/kg TIW 2 wk,0.6
same,CR (animals of 5 showing a complete response),[4]; 0.75 μmol/kg TIW 2 wk,0/5
same,% T/C,[4]; 0.75 μmol/kg TIW 2 wk,265%
same,LCK (log of cell kill),[4]; 0.75 μmol/kg TIW 2 wk,1.8
same,CR (animals of 5 showing a complete response),[4]; 1 μmol/kg TIW 2 wk,0/5
same,% T/C,[4]; 1 μmol/kg TIW 2 wk,246%
same,LCK (log of cell kill),[4]; 1 μmol/kg TIW 2 wk,1.8
same,CR (animals of 5 showing a complete response),[4]; 2 μmol/kg TIW 2 wk,0/5^(d)
same,deaths,"[4]; 2 μmol/kg TIW 2 wk, 5 animals",^(d)5 deaths.
same,Weight Loss,[3]; 0.5 μmol/kg TIW 2 wk,0%
same,Weight Loss,[3]; 0.75 μmol/kg TIW 2 wk,0%
same,Weight Loss,[3]; 1 μmol/kg TIW 2 wk,>10%
same,Weight Loss,[3]; 2 μmol/kg TIW 2 wk,>20%

# Reference: US20080280937A1, “Ligand Conjugates of Vinca Alkaloids, Analogs, and Derivatives” (priority 2005, published 2008)
